Here are results for 14 molecules from patent US20210299079A1, “MONOMETHYL FUMARATE-CARRIER CONJUGATES AND METHODS OF THEIR USE” (Flagship Pioneering Innovations V, Inc., priority 2018, published 2021).

Format in all cases: in vitro ADME
Data set [1] is described as follows: Stability of conjugates in Simulated Gastric Fluid (SGF). The settings on record: SGF pH 1.6 with pepsin, 37° C., 1 μM compound. The protocol:
Assay 1. Stability of conjugates in Simulated Gastric Fluid (SGF). This assay was used to assess the stability of a conjugate in a stomach.
Medium was prepared by dissolving 2 g of sodium chloride in 0.6 L in ultrapure water (MilliQ®, Millipore Sigma, Darmstadt, Germany). The pH was adjusted to 1.6 with 1N hydrochloric acid, and the volume was then adjusted to 1 L with purified water.
60 mg FaSSIF powder (Biorelevant™, London, UK) were dissolved in 500 mL buffer (above). Pepsin was added (0.1 mg/mL) (Millipore Sigma, Darmstadt, Germany), and the solution was stirred. The resulting SGF media were used fresh for each experiment.
Test compounds were dissolved in DMSO stock to 1 mM. An aliquot of the DMSO stock solution was removed and diluted in the SGF Media in 15 mL falcon tubes to generate a total compound concentration of 1 μM. A 1 mL aliquot was immediately removed and diluted once with 1 volume of acetonitrile for TO timepoint. The mixture was sealed and mixed at 37° C. in an incubator. Aliquots (1 mL) were removed at regular intervals and immediately quenched by the addition of 1 volume of acetonitrile. The resulting samples were analyzed by LC/MS to determine degradation rates in SGF.

Data set [2] in a line: In vitro Colonic Material Stability Assay. The settings on record: colonic material slurry in YCFAC media, anaerobic, 1 or 10 μM. On the procedure:
Assay 3. In vitro Colonic Material Stability Assay. This assay was used to assess the stability of a conjugate in a large intestine. All experiments were performed in an anaerobic chamber containing 90% nitrogen, 5% hydrogen and 5% carbon dioxide. Colonic material was resuspended as a slurry (15% w/v final concentration) in pre-reduced, anaerobically sterilized dilution blanks (Anaerobe Systems AS-908). The colonic material was then inoculated into 96 well plates containing YCFAC media (Anaerobe Systems AS-680) or other suitable media (6.7 μL slurry into 1 mL total media). Compounds or groups of compounds were added to each individual well to reach a final analyte concentration of 1 or 10 μM, and the material was mixed by pipetting. Sample was removed after set timepoints (0, 120, 240, 480, 1440, 2880 minutes after initiation of the assay), quenched with acetonitrile containing internal standard, and analyzed by LC/MS.

The nature of data set [3]: Stability of conjugates in Simulated Intestinal Fluid (SIF). The settings on record: SIF pH 6.7 with pancreatin, 37° C., 1 μM compound. On the procedure:
Assay 2. Stability of conjugates in Simulated Intestinal Fluid (SIF). This assay was used to assess the stability of a conjugate in a small intestine.
Phosphate buffer was prepared by dissolving 0.42 g of sodium hydroxide pellets and 3.95 g of monobasic sodium phosphate monohydrate and 6.19 g of sodium chloride in ultrapure water (MilliQ®, Millipore Sigma, Darmstadt, Germany). The pH was adjusted to 6.7 using aq. HCl and aq. NaOH, as necessary, and the solution was diluted with ultrapure water to produce 1 L of the pH 6.7 buffer.
112 mg FaSSIF powder (Biorelevant™, London, UK) was dissolved in 50 mL of the pH 6.7 buffer. 2 to 3 mL of the resulting solution were then added to 500 mg pancreatin (Millipore Sigma, Darmstadt, Germany). The resulting mixture was agitated by finger tapping the vessel containing the mixture until milky suspension formed. At this time, the remainder of the 50 mL FaSSiF/pH 6.7 buffer solution was added. The resulting suspension was flipped upside down 10 times to produce SIF, which was used fresh.
Test compounds were dissolved in DMSO stock to 1 mM. An aliquot of the DMSO stock solution was removed and diluted in the SIF media in 15 mL falcon tubes to produce a mixture with a tested compound concentration of 1 μM. A 1 mL aliquot was immediately removed and diluted once with 1 volume of acetonitrile for TO timepoint. The mixture was sealed and agitated at 37° C. in an incubator. Aliquots (1 mL) were removed at regular intervals and immediately quenched by the addition of 1 volume of acetonitrile. The resulting samples were analyzed by LC/MS to determine degradation rates

Structures can show the parent of a compound that is named as a salt.

For the molecule `CCC(=O)O[C@@H]1[C@@H](OC(=O)CC)[C@H](OC(=O)/C=C/C(=O)OC)OC[C@@H]1OC(=O)CC` [Compound 5, Methyl ((2S,3R,4S,5S)-3,4,5-tris(propionyloxy)tetrahydro-2H-pyran-2-yl) fumarate], the “Assay 1 (SGF) (% Remaining @ 1 hour)” value in data set [1] was “C (C: >75% of the tested compound remaining)”. For the same molecule, the “Assay 3 (% Remaining at 24 h)” value in data set [2] is given as “A (A: <25% of the tested compound remaining)”. The “Assay 2 (SIF) (% @ Remaining 4 hours)” value in data set [3] was “C (C: >75% of the tested compound remaining)”.
In the case of `CCCC(=O)O[C@@H]1[C@@H](OC(=O)CCC)[C@H](OC(=O)/C=C/C(=O)OC)OC[C@H]1OC(=O)CCC` [Compound 7, Methyl ((2S,3R,4S,5R)-3,4,5-tris(butyryloxy)tetrahydro-2H-pyran-2-yl) fumarate], the “Assay 1 (SGF) (% Remaining @ 1 hour)” value in data set [1] was “C (C: >75% of the tested compound remaining)”. Moreover, the “Assay 3 (% Remaining at 24 h)” value in data set [2] is “C (C: >75% of the tested compound remaining)”. Also, the “Assay 2 (SIF) (% @ Remaining 4 hours)” value in data set [3] is “A (A: <25% of the tested compound remaining)”.
Take `CCCC(=O)O[C@@H]1[C@@H](OC(=O)CCC)[C@@H](OC(=O)/C=C/C(=O)OC)OC[C@H]1OC(=O)CCC` [Compound 8, Methyl ((2R,3R,4S,5R)-3,4,5-tris(butyryloxy)tetrahydro-2H-pyran-2-yl) fumarate]: in data set [1], the “Assay 1 (SGF) (% Remaining @ 1 hour)” value is recorded as “C (C: >75% of the tested compound remaining)”. Besides, in data set [2], the “Assay 3 (% Remaining at 24 h)” value is recorded as “C (C: >75% of the tested compound remaining)”. Moreover, the “Assay 2 (SIF) (% @ Remaining 4 hours)” value in data set [3] is reported as “A (A: <25% of the tested compound remaining)”.
Regarding `CCC(=O)O[C@H]1[C@@H](OC(=O)/C=C/C(=O)OC)OC[C@@H](OC(=O)CC)[C@H]1OC(=O)CC` [Compound 9, Methyl ((2R,3R,4R,5R)-3,4,5-tris(propionyloxy)tetrahydro-2H-pyran-2-yl) fumarate], the “Assay 1 (SGF) (% Remaining @ 1 hour)” value in data set [1] was “C (C: >75% of the tested compound remaining)”. Further, the “Assay 3 (% Remaining at 24 h)” value in data set [2] is “C (C: >75% of the tested compound remaining)”. In data set [3], the “Assay 2 (SIF) (% @ Remaining 4 hours)” value is listed as “A (A: <25% of the tested compound remaining)”.
`CCCC(=O)OC[C@H]1O[C@@H](OC(=O)/C=C/C(=O)OC)[C@H](OC(=O)CCC)[C@@H](OC(=O)CCC)[C@@H]1OC(=O)CCC` [Compound 10, Methyl ((2S,3R,4S,5R,6R)-3,4,5-tris(butyryloxy)-6-((butyryloxy)methyl)tetrahydro-2H-pyran-2-yl) fumarate]: the “Assay 1 (SGF) (% Remaining @ 1 hour)” value in data set [1] is “B (B: 25-75% of the tested compound remaining)”. Also, the “Assay 3 (% Remaining at 24 h)” value in data set [2] is “B (B: 25-75% of the tested compound remaining)”. Also, in data set [3], the “Assay 2 (SIF) (% @ Remaining 4 hours)” value is listed as “B (B: 25-75% of the tested compound remaining)”.
On to `CCCC(=O)OC[C@H]1O[C@H](OC(=O)/C=C/C(=O)OC)[C@H](OC(=O)CCC)[C@@H](OC(=O)CCC)[C@@H]1OC(=O)CCC` [Compound 11, Methyl ((2R,3R,4S,5R,6R)-3,4,5-tris(butyryloxy)-6-((butyryloxy)methyl)tetrahydro-2H-pyran-2-yl) fumarate], for which the “Assay 1 (SGF) (% Remaining @ 1 hour)” value in data set [1] is “B (B: 25-75% of the tested compound remaining)”. Also, the “Assay 3 (% Remaining at 24 h)” value in data set [2] is given as “B (B: 25-75% of the tested compound remaining)”. For the same molecule, in data set [3], the “Assay 2 (SIF) (% @ Remaining 4 hours)” value is listed as “B (B: 25-75% of the tested compound remaining)”.
With `CCCC(=O)O[C@@H]1[C@@H](OC(=O)CCC)[C@@H](OC(=O)/C=C/C(=O)OC)OC[C@@H]1OC(=O)CCC` [Compound 12, Methyl ((2R,3R,4S,5S)-3,4,5-tris(butyryloxy)tetrahydro-2H-pyran-2-yl) fumarate], the “Assay 1 (SGF) (% Remaining @ 1 hour)” value in data set [1] is listed as “C (C: >75% of the tested compound remaining)”. Moreover, the “Assay 3 (% Remaining at 24 h)” value in data set [2] is “C (C: >75% of the tested compound remaining)”. The “Assay 2 (SIF) (% @ Remaining 4 hours)” value in data set [3] is listed as “A (A: <25% of the tested compound remaining)”.
For `CCCC(=O)O[C@H]1[C@H](OC(=O)CCC)[C@H](OC(=O)/C=C/C(=O)OC)O[C@@H](C)[C@H]1OC(=O)CCC` [Compound 13, Methyl ((2S,3S,4R,5R,6S)-3,4,5-tris(butyryloxy)-6-methyltetrahydro-2H-pyran-2-yl) fumarate], the “Assay 1 (SGF) (% Remaining @ 1 hour)” value in data set [1] is “B (B: 25-75% of the tested compound remaining)”. In addition, in data set [2], the “Assay 3 (% Remaining at 24 h)” value was “C (C: >75% of the tested compound remaining)”. In addition, the “Assay 2 (SIF) (% @ Remaining 4 hours)” value in data set [3] is “A (A: <25% of the tested compound remaining)”.
In the same order, the values of `CCCC(=O)O[C@@H]1[C@@H](OC(=O)CCC)[C@H](C)O[C@H](OC(=O)/C=C/C(=O)OC)[C@@H]1OC(=O)CCC` [Compound 14, Methyl ((2R,3R,4R,5S,6S)-3,4,5-tris(butyryloxy)-6-methyltetrahydro-2H-pyran-2-yl) fumarate] are “C (C: >75% of the tested compound remaining)”, “C (C: >75% of the tested compound remaining)” and “A (A: <25% of the tested compound remaining)”.
For `CCCC(=O)O[C@@H]1O[C@H](COC(=O)/C=C/C(=O)OC)[C@@H](OC(=O)CCC)[C@H](OC(=O)CCC)[C@H]1OC(=O)CCC` [Compound 23, Methyl (((2R,3R,4S,5R,6S)-3,4,5,6-tetrakis(butyryloxy)tetrahydro-2H-pyran-2-yl)methyl) fumarate], in that order: “B (B: 25-75% of the tested compound remaining)”, “A (A: <25% of the tested compound remaining)” and “A (A: <25% of the tested compound remaining)”.
For `CCCC(=O)O[C@@H]1[C@@H](OC(=O)CCC)[C@H](OC(=O)/C=C/C(=O)OC)OC[C@@H]1OC(=O)CCC` [Compound 36, 1-methyl (2S,3R,4S,5S)-3,4,5-tris(butanoyloxy)oxan-2-yl (2E)-but-2-enedioate], in that order: “C (C: >75% of the tested compound remaining)”, “C (C: >75% of the tested compound remaining)” and “A (A: <25% of the tested compound remaining)”.
On to `CCCC(=O)O[C@@H]1[C@@H](OC(=O)CCC)[C@H](OC(=O)/C=C/C(=O)OC)O[C@H](CO)[C@H]1OC(=O)CCC` [Compound 38, 1-methyl (2S,3R,4S,5R,6R)-3,4,5-tris(butanoyloxy)-6-(hydroxymethyl)oxan-2-yl (2E)-but-2-enedioate], for which the “Assay 1 (SGF) (% Remaining @ 1 hour)” value in data set [1] is “C (C: >75% of the tested compound remaining)”. In addition, in data set [2], the “Assay 3 (% Remaining at 24 h)” value is on record as “A (A: <25% of the tested compound remaining)”. The “Assay 2 (SIF) (% @ Remaining 4 hours)” value in data set [3] is recorded as “A (A: <25% of the tested compound remaining)”.
With `CCCC(=O)O[C@@H]1[C@@H](OC(=O)CCC)[C@@H](OC(=O)/C=C/C(=O)OC)O[C@H](CO)[C@H]1OC(=O)CCC` [Compound 39, 1-methyl (2R,3R,4S,5R,6R)-3,4,5-tris(butanoyloxy)-6-(hydroxymethyl)oxan-2-yl (2E)-but-2-enedioate], the “Assay 1 (SGF) (% Remaining @ 1 hour)” value in data set [1] is reported as “C (C: >75% of the tested compound remaining)”. In addition, the “Assay 3 (% Remaining at 24 h)” value in data set [2] is reported as “A (A: <25% of the tested compound remaining)”. In addition, the “Assay 2 (SIF) (% @ Remaining 4 hours)” value in data set [3] was “A (A: <25% of the tested compound remaining)”.
As for `CCCC(=O)O[C@H]1O[C@H](COC(=O)/C=C/C(=O)OC)[C@@H](OC(=O)CCC)[C@H](OC(=O)CCC)[C@H]1OC(=O)CCC` [Compound 40, 1-methyl 4-[(2R,3R,4S,5R,6R)-3,4,5,6-tetrakis(butanoyloxy)oxan-2-yl]methyl (2E)-but-2-enedioate], the “Assay 1 (SGF) (% Remaining @ 1 hour)” value in data set [1] is “B (B: 25-75% of the tested compound remaining)”. Moreover, the “Assay 3 (% Remaining at 24 h)” value in data set [2] is given as “A (A: <25% of the tested compound remaining)”. In addition, in data set [3], the “Assay 2 (SIF) (% @ Remaining 4 hours)” value is “A (A: <25% of the tested compound remaining)”.
